In US20100254922A1, “COSMETIC AND/OR DERMATOLOGICAL COMPOSITION BASED ON N,N'-[…] ACID ESTER(S)” (L'OREAL, priority 2008, published 2010):

Assay: Solubility test of the ester compound in test solvents
Format: physicochemical
Experimental: The solubility tests were performed with the diisopropyl ester of N,N′-bis(benzyl)ethylenediamine-N,N′-diacetic acid.
The test solvent was poured into a beaker, an amount of the ester compound was added with magnetic stirring and the mixture was left to stand for between 1 hour and 24 hours. The mixture was then heated to 50° C. and then cooled to room temperature (25° C.) over 24 hours. The system was then observed to see if the amount of the ester compound introduced recrystallized or remained dissolved.
The amount of ester compound that can be dissolved in the test solvent was determined in this manner. The maximum value corresponds to the amount at and above which the ester compound stops dissolving in the evaluated solvent.

Weight % of dissolved ester compound (solvent: 2-Ethylhexyl salicylate, 25° C.): 10 Weight %
Weight % of dissolved ester compound (solvent: 2-Octyldodecanol, 25° C.): 10 Weight %
Weight % of dissolved ester compound (solvent: Apricot oil, 25° C.): 12 Weight %
Weight % of dissolved ester compound (solvent: Butylene glycol, 25° C.): 1 Weight %
Weight % of dissolved ester compound (solvent: Cyclohexasiloxane, 25° C.): 4.7 Weight %
Weight % of dissolved ester compound (solvent: Cyclopentasiloxane, 25° C.): 4.5 Weight %
Weight % of dissolved ester compound (solvent: Dimethyl isosorbide, 25° C.): 38 Weight %
Weight % of dissolved ester compound (solvent: Dipropylene glycol, 25° C.): 10.7 Weight %
Weight % of dissolved ester compound (solvent: Ethanol, 25° C.): 8 Weight %
Weight % of dissolved ester compound (solvent: Glycerol, 25° C.): 1 Weight %
Weight % of dissolved ester compound (solvent: Hexylene glycol, 25° C.): 11.5 Weight %
Weight % of dissolved ester compound (solvent: Hydrogenated isoparaffin (Parleam from NOF), 25° C.): 9 Weight %
Weight % of dissolved ester compound (solvent: Isononyl isononanoate, 25° C.): 16 Weight %
Weight % of dissolved ester compound (solvent: Isopropyl N-lauroylsarcosinate (Eldew SL-205 from Ajinomoto), 25° C.): 18 Weight %
Weight % of dissolved ester compound (solvent: Isopropyl myristate, 25° C.): 11.5 Weight %
Weight % of dissolved ester compound (solvent: Isopropyl palmitate, 25° C.): 9 Weight %
Weight % of dissolved ester compound (solvent: Phenyl trimethicone (Dow Corning 556), 25° C.): 12 Weight %
Weight % of dissolved ester compound (solvent: Propylene glycol, 25° C.): 1 Weight %
Weight % of dissolved ester compound (solvent: Squalane, 25° C.): 9 Weight %
Weight % of dissolved ester compound (solvent: Water, heated to 50° C., cooled to room temperature (25° C.) over 24 hours): Insoluble
Structure (SMILES): CC(C)OC(=O)CN(CCN(CC(=O)OC(C)C)Cc1ccccc1)Cc1ccccc1 [diisopropyl ester of N,N′-bis(benzyl)ethylenediamine-N,N′-diacetic acid]
